# Patent US20240342685A1, “ABSORBENT COMPOUNDS FOR CAPTURING CARBON DIOXIDE” (The Regents of the University of California, priority 2021, published 2024)
# Like-named read-outs stand apart in the source and are kept apart here.
# Assays:
# [1] = cited from earlier work
# [2] = Aspen Plus absorber/stripper process model, CO2 vapor liquid equilibrium; settings: 11% mole fraction
# Source text: For example, the suitability of a PEP variant for non-enzymatic carbon capture can be evaluated by modeling. The Electric Power Research Institute (EPRI; Palo Alto, CA) maintains and operates Aspen Plus process models based on the absorber/stripper configuration shown in FIG. 21 and standard operational parameters (e.g., as described in the Examples). These models are configured to accept generalized solvent (absorbent) properties and calculate the resulting energy penalty. Model inputs can include the solubility, viscosity, and heat capacity of the PEP variant, as well as the CO2 vapor liquid equilibrium (VLE) of the underlying carbon capture reaction equilibrium (absorption/desorption). VLE describes the number of moles CO2 per unit volume solution absorbed via reaction and dissolution as a function of CO2 partial pressure above solution. […] At higher temperature (e.g., 120° C. stripper), reactants are favored and HCO3 desorbs, releasing CO2 back into the gas phase for capture and compression. The difference ACO2 between these temperature extremes determines the absorption capacity of the solvent, or cyclic capacity of the absorber/stripper system.
# These models can be used to quantify the energy penalty of a PEP variant for carbon capture chemistry relative to the MEA benchmark. […] The improvement can be evaluated at the temperatures of the absorber (40° C.) and stripper (120° C.).
# [3] = Shear viscosity by Green-Kubo relation, MD simulation; settings: aqueous solution
# Method: These simulations were performed under the same conditions and with the same forcefield as the PEP simulations. The shear viscosity of a liquid can be computed through several different atomistic simulation methods. […] In this method, the shear viscosity is obtained from the integral over time of the pressure tensor autocorrelation function: where V is the volume of the system, kB is the Boltzmann constant, T is temperature, Pxy denotes the element xy of the pressure tensor, and the angle bracket refers to the ensemble average. Viscosity plays an important role in pumping costs for moving aqueous PEP solutions between the absorber and stripper.
# [4] = in water at 298 K; non-reactive MD literature; cited from earlier work
# [5] = pure water; cited from earlier work
Structure (SMILES),"Enthalpy of Solution, Literature value ([1]; 3 m to 4 m)","Enthalpy of Solution, Literature value ([1]; 3 m to 5 m)","Enthalpy of Solution, Literature value ([1]; 4 m to 5 m)",other results
CC(=O)O [Acetic Acid],-0.0461 kcal/mol,-0.0418 kcal/mol,-0.088 kcal/mol,–
O=CO [Formic Acid],0 kcal/mol,0 kcal/mol,0 kcal/mol,–
"NCCO [MEA, monoethanolamine]",–,–,–,CO2 remaining bound in solution during absorber-stripper cycling ([2]; CCNG): 16%; CO2 remaining bound in solution during absorber-stripper cycling ([2]; SCPC): 29%
"C=C(OP(=O)(O)O)C(=O)O [PEP, phosphoenolpyruvate]",–,–,–,"viscosity relative to the standard MEA solution ([3]; 45 to 55 wt %): roughly triple; real viscosity ([3]; 45 to 55 wt % (9.8 mol %), estimated): about 3 mPa*s"
O=C(O)O [bicarbonate],–,–,–,"diffusion coefficient, published literature [4]: 1.17×10^−9 m^2s^−1"
O [water],–,–,–,"viscosity, expected value [5]: around 0.79 mPa·s"
